By pIC50 is commonly meant the IC50 on a negative log10 scale, so that one unit is a factor of ten.

The results in this text go back to patent US10822337B2, “TGF-β inhibitorC” (Rigel Pharmaceuticals, Inc., priority 2015, dated 2020).

pIC50: −log10 of the molar value.

Test [1] deals with TGF-β signaling (TGF-β pSMAD, MPC-11). The experiment in a line: AlphaScreen SureFire SMAD3 (p-Ser423/425) assay, inhibition of TGF-β signaling. The format is cell-based. The following applies: Mus musculus, p-SMAD-3 (Ser423/425) in cell lysate after TGF-β stimulation. In short, it runs like this:
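Cells in collagen-coated plates were pretreated about 10 minutes with three-fold DMSO serial dilutions of compound, then stimulated with TGF-β. They were lysed with about 25 μL 1× Lysis Buffer. Lysates in 384-well plates were incubated protected from light with Acceptor bead mix for 2 hours and Donor bead mix for 1½ hours. p-SMAD-3 (Ser423/425) was read on Synergy-4 or Enspire using AlphaScreen pSMAD3 settings.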
In general terms: Bead proximity is the source of the signal in Alpha formats.

Test [2] relates to GDF8 signaling (GDF pSMAD, MPC11). Briefly: AlphaScreen SureFire SMAD3 (p-Ser423/425) assay, inhibition of GDF8 signaling. The following applies: Mus musculus, MPC-11, p-SMAD-3 (Ser423/425) in cell lysate after GDF8 stimulation. The format is cell-based.

On to `Fc1ccc(F)c(-c2nn3c(c2-c2ccc4cn[nH]c4c2)CCC3)c1` [Compound 193, 6-(2-(2,5-Difluorophenyl)-5,6-dihydro-4H-pyrrolo[1,2-b]pyrazol-3-yl)-1H-indazole], for which the results for the pIC50 in test [1] and in test [2] were 5.59 and 6.43, respectively.

Turning to `Cc1cccc(-c2nn3c(c2-c2ccc4[nH]ncc4c2)OCC3)c1` [Compound 36, 7-(1H-Indazol-5-yl)-6-(m-tolyl)-2,3-dihydropyrazolo[5,1-b]oxazole], the pIC50 was 6.28 in test [1] and 6.99 in test [2].

Regarding `Fc1cc(F)c(-c2nn3c(c2-c2ccc4ncsc4c2)CCC3)cc1Cl` [Compound 189, 6-(2-(5-Chloro-2,4-difluorophenyl)-5,6-dihydro-4H-pyrrolo[1,2-b]pyrazol-3-yl)benzo[d]thiazole], the figures for the pIC50 in test [1] and in test [2] were 6.63 and 6.89, respectively.

In the case of `Cc1c(F)ccc(-c2nn3c(c2-c2ccc4ncnn4c2)CCC3)c1F` [Compound 173, 6-(2-(2,4-Difluoro-3-methyphenyl)-5,6-dihydro-4H-pyrrolo[1,2-b]pyrazol-3-yl)-[1,2,4]triazolo[1,5-a]pyridine], the pIC50 was 6.48 in test [1] and 6.88 in test [2].

On to `COc1cccc(-c2nn3c(c2-c2ccc4ncsc4c2)CCC3)c1` [Compound 30, 6-(2-(3-Methoxyphenyl)-5,6-dihydro-4H-pyrrolo[1,2-b]pyrazol-3-yl)benzo[d]thiazole], for which the pIC50 is 6.58 in test [1] and 7.31 in test [2].

Turning to `Fc1ccc(-c2nn3c(c2-c2ccc4[nH]ncc4c2)CCC3)cc1` [Compound 5, 5-(2-(4-Fluorophenyl)-5,6-dihydro-4H-pyrrolo[1,2-b]pyrazol-3-yl)-1H-indazole], the figures for the pIC50 in test [1] and in test [2] were 6.30 and 6.89, respectively.

Regarding `Cc1cccc(-c2nn3c(c2-c2ccc4[nH]ncc4c2)OCCC3)c1` [Compound 40, 3-(1H-Indazol-5-yl)-2-(m-tolyl)-6,7-dihydro-5H-pyrazolo[5,1-b][1,3]oxazine], the pIC50 was 5.61 in test [1] and 6.18 in test [2].

Regarding `Clc1ccccc1-c1nn2c(c1-c1ccc3ncnn3c1)CCC2` [Compound 121, 6-(2-(2-Chlorophenyl)-5,6-dihydro-4H-pyrrolo[1,2-b]pyrazol-3-yl)-[1,2,4]triazolo[1,5-a]pyridine], the results for the pIC50 in test [1] and in test [2] were 6.02 and 6.47, respectively.

Turning to `Fc1ccc(-c2nn3c(c2-c2ccc4ncccc4c2)OCC3)cc1` [Compound 69, 6-(4-Fluorophenyl)-7-(quinolin-6-yl)-2,3-dihydropyrazolo[5,1-b]oxazole], the results for the negative-log IC50 (pIC50) in test [1] and in test [2] were 5.11 and 5.90, respectively.

On to `Fc1ccc(Cl)cc1-c1nn2c(c1-c1ccc3ncccc3c1)CCC2` [Compound 176, 6-(2-(5-Chloro-2-fluorophenyl)-5,6-dihydro-4H-pyrrolo[1,2-b]pyrazol-3-yl)quinoline], for which the pIC50 is 6.86 in test [1] and 7.33 in test [2].

As for `Fc1cc(F)c(-c2nn3c(c2-c2ccc4nccnc4c2)CCC3)cc1F` [Compound 118, 6-(2-(2,4,5-Trifluorophenyl)-5,6-dihydro-4H-pyrrolo[1,2-b]pyrazol-3-yl)quinoxaline], the pIC50 in test [1] was 6.18; in test [2] it was 7.01.

Consider `Cc1cc(-c2nn3c(c2-c2ccc4nccnc4c2)CCC3)ccc1F` [Compound 55, 6-(2-(4-Fluoro-3-methylphenyl)-5,6-dihydro-4H-pyrrolo[1,2-b]pyrazol-3-yl)quinoxaline], for which the pIC50 in test [1] is 6.28; in test [2], 6.76.

Consider `Fc1ccc(-c2nn3c(c2-c2ccc4ncnn4c2)CCC3)cc1Cl` [Compound 148, 6-(2-(3-Chloro-4-fluorophenyl)-5,6-dihydro-4H-pyrrolo[1,2-b]pyrazol-3-yl)-[1,2,4]triazolo[1,5-a]pyridine], for which the pIC50 in test [1] was 6.51; in test [2], 7.01.

With `Fc1ccc(-c2nn3c(c2-c2ccc4ncsc4c2)CCC3)cc1OC(F)(F)F` [Compound 152, 6-(2-(4-Fluoro-3-trifluoromethoxyphenyl)-5,6-dihydro-4H-pyrrolo[1,2-b]pyrazol-3-yl)benzo[d]thiazole], the pIC50 was 5.76 in test [1] and 6.31 in test [2].

For `Fc1cc(F)c(-c2nn3c(c2-c2ccc4nccnc4c2)CCC3)cc1Cl` [Compound 191, 6-(2-(5-Chloro-2,4-difluorophenyl)-5,6-dihydro-4H-pyrrolo[1,2-b]pyrazol-3-yl)quinoxaline], the pIC50 in test [1] was 6.67; in test [2], 7.13.

For the compound `Cc1cc(-c2nn3c(c2-c2ccc4ncsc4c2)CCC3)ccc1F` [Compound 17, 6-(2-(4-Fluoro-3-methylphenyl)-5,6-dihydro-4H-pyrrolo[1,2-b]pyrazol-3-yl)benzo[d]thiazole], the results for the pIC50 in test [1] and in test [2] were 6.43 and 6.91, respectively.

Turning to `Fc1ccc(-c2nn3c(c2-c2ccc4nccnc4c2)CCC3)cc1Cl` [Compound 147, 6-(2-(3-Chloro-4-fluorophenyl)-5,6-dihydro-4H-pyrrolo[1,2-b]pyrazol-3-yl)quinoxaline], the pIC50 in test [1] was 6.16; in test [2], 6.69.

As to `COCCOc1cnc2ccc(-c3c(-c4cc(F)ccc4F)nn4c3CCC4)cc2n1` [Compound 200, 7-(2-(2,5-difluorophenyl)-5,6-dihydro-4H-pyrrolo[1,2-b]pyrazol-3-yl)-2-(2-methoxyethoxy)quinoxaline], the pIC50 in test [1] is 6.02; in test [2], 6.56.

Regarding `FC(F)(F)c1cccc(-c2nn3c(c2-c2ccc4cn[nH]c4c2)CCC3)c1` [Compound 32, 6-(2-(3-Trifluoromethylphenyl)-5,6-dihydro-4H-pyrrolo[1,2-b]pyrazol-3-yl)-1H-indazole], the pIC50 was 6.54 in test [1] and 7.35 in test [2].

As to `Clc1ccccc1-c1nn2c(c1-c1ccc3ncsc3c1)CCC2` [Compound 120, 6-(2-(2-Chlorophenyl)-5,6-dihydro-4H-pyrrolo[1,2-b]pyrazol-3-yl)benzo[d]thiazole], the pIC50 in test [1] is 5.26; in test [2], 6.06.

`FC(F)(F)c1cccc(-c2nn3c(c2-c2ccc4ncccc4c2)CCC3)c1` [Compound 50, 6-(2-(3-Trifluoromethylphenyl)-5,6-dihydro-4H-pyrrolo[1,2-b]pyrazol-3-yl)quinoline]: the pIC50 is 5.38 in test [1] and 6.32 in test [2].

For the compound `Fc1ccc(-c2nn3c(c2-c2ccc4ncsc4c2)CCC3)c(F)c1` [Compound 97, 6-(2-(2,4-Difluorophenyl)-5,6-dihydro-4H-pyrrolo[1,2-b]pyrazol-3-yl)benzo[d]thiazole], the pIC50 in test [1] was 6.94; in test [2], 7.58.

For the compound `Cn1cnc2ccc(-c3c(-c4ccc(F)cc4)nn4c3CCC4)cc21` [Compound 13, 6-(2-(4-Fluorophenyl)-5,6-dihydro-4H-pyrrolo[1,2-b]pyrazol-3-yl)-1-methyl-1H-benzo[d]imidazole], the pIC50 is 6.74 in test [1] and 7.10 in test [2].

With `Fc1ccc(-c2nn3c(c2-c2ccc4ncnn4c2)CCC3)c(F)c1` [Compound 111, 6-(2-(2,4-Difluorophenyl)-5,6-dihydro-4H-pyrrolo[1,2-b]pyrazol-3-yl)-[1,2,4]triazolo[1,5-a]pyridine], the pIC50 is 6.64 in test [1] and 7.21 in test [2].

In the case of `Fc1cc(F)c(-c2nn3c(c2-c2ccc4nccn4c2)CCC3)cc1F` [Compound 115, 6-(2-(2,4,5-Trifluorophenyl)-5,6-dihydro-4H-pyrrolo[1,2-b]pyrazol-3-yl)imidazo[1,2-a]pyridine], the pIC50 is 6.43 in test [1] and 7.18 in test [2].
